Measurements reported in US20110319392A1, “Thiazole Sulfonamide And Oxazole Sulfonamide Kinase Inhibitors” (priority 2009, published 2011).
Structures can show the parent of a compound that is named as a salt.

What was measured:
[1] = target: T1, EGFR (Homo sapiens, UniProt P00533); test: EGFR substrate phosphorylation assay (HTRF); type: biochemical
T1 construct: made in house; host or cells: baculovirus expression system
How it was run: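 Baculovirus-expressed EGFR (0.8 nM) or ErbB2 (10 nM) in enzyme mix, preincubated 1 h at 20 °C with compound (0.00027–47.6 μM final), then 90 min at 20 °C with substrate mix of 20 μM ATP, 0.8 uM biotinylated Peptide C, MnCl2, MOPS pH 7.5. Phosphotyrosine by HTRF; pIC50 reported.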

[2] = system: SK-MEL-3 tumor cells; test: Cell growth inhibition assay (CellTiter-Glo), SK-MEL-3; type: cell-based, Human; conditions: Homo sapiens, SK-MEL3
Protocol: (§1) Human breast tumor cells (BT474) were cultured in RPMI (Mediatech […]), containing 10% FBS (JRH Biosciences 12176) and 1% penicillin-streptomycin (Invitrogen 15140). Human head and neck tumor cells (HN5) were cultured in high glucose DMEM (Mediatech 50-013-PB) containing 10% FBS and 1% penicillin-streptomycin. Human colon tumor cells (Colo205) were cultured in RPMI (Mediatech 50-020-PB) containing 10% FBS and 1% penicillin-streptomycin. Human melanoma cancer cells (SK-MEL-28) were cultured in EMEM with nonessential amino acids (Mediatech 50-011-PB) containing 10% FBS, 1% sodium pyruvate (JT Baker 3354-04), and 1% penicillin-streptomycin. Human melanoma cancer cells (A375P F11s) were cultured in RPMI (Mediatech 50-020-PB) containing 10% FBS, 1% sodium pyruvate, and 1% penicillin-streptomycin. Human colon cancer cells (HT-29) were cultured in high glucose DMEM (Mediatech 50-013-PB) containing 10% FBS and 1% penicillin-streptomycin. Human melanoma cancer cells (SK-MEL-3) were cultured in McCoy's 5A (50-025-PB) containing 15% FBS, and 1% penicillin-streptomycin. All cell lines were maintained at 37° C. in a humidified 5% CO2, 95% air incubator. Cells were harvested using trypsin/EDTA (Invitrogen 25200), counted using a haemocytometer, and plated. For 96-well assays (using white full-area NUNC plates cat. #136102), cells were plated in 105 μL at the following densities (cells/well): HNS, 500; Colo 205, 500; SK-MEL-28, 500; A375P F11s, 500; HT-29, 500; SK-MEL-3, 500; and BT474, 3000. For 384-well assays (white full-area NUNC plates, cat. #781080), cells were plated in 48 μL at the following densities (cells/well): HNS, 500; Colo205, 500; SK-MEL-28, 500; A375P F11s, 500; HT-29, 500; SK-MEL-3, 500; and BT474, 2000.
(§2) The next day, compounds were diluted as follow: For 96-well assays, 13.5 μL of compound in DMSO were diluted using nine (9) serial 1:3 dilutions of 4.5 μL in 9 of DMSO. Medium (270 μL/well of RPMI with 10% FBS and 1% penicillin-streptomycin) was added to the plates. Aliquots (7 μL) were added to cells in the final assay giving a final DMSO concentration of 0.2%. For 384-well assays, 15 μL of compound in DMSO were diluted using nine (9) serial 1:3 dilutions of 5 μL in 10 μL of DMSO, followed by a further dilution of 5 μL of compound with 95 μL of medium, of which 2 μL were added to cells in the final assay giving a final DMSO concentration of 0.2%. Cells were incubated at 37° C., 5% CO2 for 3 days.
(§3) Total ATP was measured (as a surrogate estimate of cell number) using CellTiter-Glo® reagent (Promega G7571). Briefly, plates were removed from the incubator and allowed to equilibrate to room temperature for 30 minutes. CellTiter-Glo® (25 μL or 55 μL for 384-well or 96-well assays, respectively) reagent was added to each well and plates were shaken on an orbital plate shaker for 2 minutes. Plates were incubated without shaking for a further 30 minutes and read on an LJL Analyst GT reader in luminometer mode with an integration time of 0.5 seconds per well. Percent inhibition of cell growth was calculated relative to DMSO vehicle-treated control wells. Concentration of compound required to give 50% inhibition of vehicle-treated control cell growth (IC50) was interpolated using a 4-parameter fit for determining IC50 using the following equation: Y=A +((B−A)/(1+((C/X)̂D))) where […].

[3] = system: HN5 tumor cells; test: Cell growth inhibition assay (CellTiter-Glo), HN5; type: cell-based, Human; conditions: Homo sapiens, 72 h; 3 days incubation
Protocol: as §1, §2, §3

[4] = system: BT474 tumor cells; test: Cell growth inhibition assay (CellTiter-Glo), BT474; type: cell-based, Human; conditions: Homo sapiens, BT-474, 72 h, 3 days incubation
Protocol: as §1, §2, §3

T1 sequence (P00533 25-1210): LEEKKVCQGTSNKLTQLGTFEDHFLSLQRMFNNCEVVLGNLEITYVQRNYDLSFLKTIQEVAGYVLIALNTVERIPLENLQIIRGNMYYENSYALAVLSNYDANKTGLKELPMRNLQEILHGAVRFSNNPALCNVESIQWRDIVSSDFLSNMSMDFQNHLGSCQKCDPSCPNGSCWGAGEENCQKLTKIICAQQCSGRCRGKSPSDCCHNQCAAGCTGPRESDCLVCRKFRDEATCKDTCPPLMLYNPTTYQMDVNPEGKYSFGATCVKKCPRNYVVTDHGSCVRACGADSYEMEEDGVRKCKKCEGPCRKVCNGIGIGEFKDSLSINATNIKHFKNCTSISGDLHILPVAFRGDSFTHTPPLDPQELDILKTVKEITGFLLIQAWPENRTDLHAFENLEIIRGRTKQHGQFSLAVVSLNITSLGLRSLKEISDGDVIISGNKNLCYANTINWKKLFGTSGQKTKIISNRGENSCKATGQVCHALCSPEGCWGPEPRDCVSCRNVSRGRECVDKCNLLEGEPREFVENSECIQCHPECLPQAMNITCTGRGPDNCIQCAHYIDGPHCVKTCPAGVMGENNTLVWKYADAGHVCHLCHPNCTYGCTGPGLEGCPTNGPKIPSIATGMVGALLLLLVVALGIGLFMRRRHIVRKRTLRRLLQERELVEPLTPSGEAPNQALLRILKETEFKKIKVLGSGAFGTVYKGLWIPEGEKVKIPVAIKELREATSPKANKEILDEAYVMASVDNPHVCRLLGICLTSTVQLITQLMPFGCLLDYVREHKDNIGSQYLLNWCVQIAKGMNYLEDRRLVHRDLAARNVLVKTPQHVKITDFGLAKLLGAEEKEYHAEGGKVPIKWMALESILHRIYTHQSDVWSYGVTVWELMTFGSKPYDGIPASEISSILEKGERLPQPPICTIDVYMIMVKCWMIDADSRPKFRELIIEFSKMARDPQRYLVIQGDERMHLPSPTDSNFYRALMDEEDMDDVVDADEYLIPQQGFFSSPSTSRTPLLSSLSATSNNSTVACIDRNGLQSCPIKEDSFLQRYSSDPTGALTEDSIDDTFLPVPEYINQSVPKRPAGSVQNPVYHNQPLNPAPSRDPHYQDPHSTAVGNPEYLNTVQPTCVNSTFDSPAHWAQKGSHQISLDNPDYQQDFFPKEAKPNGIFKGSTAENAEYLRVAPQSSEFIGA

IC50 [1] [nM] | IC50 [2] [nM] | IC50 [3] [nM] | IC50 [4] [nM] | SMILES
100 to 1000 | 100 to 1000 | > 1000 | > 1000 | Cc1cc(Nc2nccc(-c3sc(C(C)C)nc3-c3ccc(F)c(NS(=O)(=O)c4c(F)cccc4F)c3)n2)ccn1 [Example 116]
> 1000 | < 100 | 100 to 1000 | > 1000 | COCCN1CCN(c2ccc(Nc3nccc(-c4sc(C(C)C)nc4-c4cccc(NS(=O)(=O)c5ccccc5)c4)n3)cn2)CC1 [Example 6, N-[3-(2-(1-Methylethyl)-5-{2-[(6-{4-[2-(methyloxy)ethyl]-1-piperazinyl}-3-pyridinyl)amino]-4-pyrimidinyl}-1,3-thiazol-4-yl)phenyl]benzenesulfonamide]
> 1000 | < 100 | > 1000 | > 1000 | Cc1cc(N2CCN(CCS(C)(=O)=O)CC2)ncc1Nc1nccc(-c2sc(C(C)C)nc2-c2cccc(NS(=O)(=O)c3c(F)cccc3F)c2)n1 [Example 131]
> 1000 | 100 to 1000 | > 1000 | > 1000 | CC(C)c1nc(-c2cccc(NS(=O)(=O)c3c(F)cccc3F)n2)c(-c2ccnc(Nc3ccc(N4CCOCC4)nc3)n2)s1 [Example 44]
> 1000 | < 100 | 100 to 1000 | > 1000 | CC(C)c1nc(-c2cccc(NS(=O)(=O)c3cccs3)c2)c(-c2ccnc(Nc3ccc(N4CCOCC4)nc3)n2)s1 [Example 51]
100 to 1000 | 100 to 1000 | 100 to 1000 | > 1000 | CN1CCN(c2nc(-c3ccc(F)c(NS(=O)(=O)c4c(F)cccc4F)c3)c(-c3ccnc(Nc4ccc(N5CCOCC5)nc4)n3)s2)CC1 [Example 126]
> 1000 | 100 to 1000 | > 1000 | > 1000 | CC(C)c1nc(-c2ccc(F)c(NS(=O)(=O)c3c(F)cccc3F)c2)c(-c2ccnc(Nc3ccncc3)n2)s1 [Example 102]
< 100 | < 100 | 100 to 1000 | > 1000 | COc1ccc(Nc2nccc(-c3sc(C(C)C)nc3-c3cccc(NS(=O)(=O)c4ccccc4)c3)n2)cc1N1CCN(CCC#N)CC1 [Example 9, N-{3-[5-(2-{[3-[4-(2-Cyanoethyl)-1-piperazinyl]-4-(methyloxy)phenyl]amino}-4-pyrimidinyl)-2-(1-methylethyl)-1,3-thiazol-4-yl]phenyl}benzenesulfonamide]
100 to 1000 | < 100 | 100 to 1000 | > 1000 | O=S1(=O)Cc2ccc(Nc3nccc(-c4sc(N5CCOCC5)nc4-c4cccc(NS(=O)(=O)c5c(F)cccc5F)c4F)n3)cc2C1 [Example 155]
< 100 | < 100 | 100 to 1000 | > 1000 | COc1ccc(Nc2nccc(-c3sc(C(C)C)nc3-c3cccc(NS(=O)(=O)c4c(F)cccc4F)c3)n2)cc1N(C)C [Example 18, N-{3-[5-(2-{[3-(Dimethylamino)-4-(methyloxy)phenyl]amino}-4-pyrimidinyl)-2-(1-methylethyl)-1,3-thiazol-4-yl]phenyl}-2,6-difluorobenzenesulfonamide trifluoroacetate]
> 1000 | < 100 | > 1000 | > 1000 | CC(=O)N1CCN(c2ccc(Nc3nccc(-c4oc(C(C)C)nc4-c4cccc(NS(=O)(=O)c5c(F)cccc5F)c4)n3)cn2)CC1 [Example 56]
> 1000 | 100 to 1000 | > 1000 | > 1000 | CC(C)c1nc(-c2ccc(F)c(NS(=O)(=O)c3c(F)cccc3F)c2)c(-c2ccnc(Nc3ccc(N4CCC(C#N)CC4)nc3)n2)s1 [Example 24, N-{5-[5-(2-{[6-(4-Cyano-1-piperidinyl)-3-pyridinyl]amino}-4-pyrimidinyl)-2-(1-methylethyl)-1,3-thiazol-4-yl]-2-fluorophenyl}-2,6-difluorobenzenesulfonamide]
100 to 1000 | 100 to 1000 | > 1000 | > 1000 | CC(=O)N1CCN(c2ccc(Nc3nccc(-c4sc(C(C)C)nc4-c4cccc(NS(=O)(=O)C5CCCCC5)c4)n3)cn2)CC1 [Example 39]
100 to 1000 | 100 to 1000 | > 1000 | > 1000 | O=S(=O)(Nc1cc(-c2nc(N3CCCC3)sc2-c2ccnc(Nc3ccc(N4CCOCC4)nc3)n2)ccc1F)c1c(F)cccc1F [Example 26, 2,6-Difluoro-N-{2-fluoro-5-[5-(2-{(6-(4-morpholinyl)-3-pyridinyl]amino}-4-pyrimidinyl)-2-(1-pyrrolidinyl)-1,3-thiazol-4-yl]phenyl}benzenesulfonamide]
100 to 1000 | 100 to 1000 | 100 to 1000 | > 1000 | CC(C)c1nc(-c2cccc(NS(=O)(=O)c3c(F)cccc3F)c2)c(-c2ccnc(Nc3ccc(N4CCOCC4)c(F)c3)n2)o1 [Example 57]
100 to 1000 | 100 to 1000 | > 1000 | > 1000 | CC(C)c1nc(-c2ccc(F)c(NS(=O)(=O)c3c(F)cccc3F)c2)c(-c2ccnc(Nc3ccc(N4CCN(CCF)CC4)c(F)c3)n2)s1 [Example 25]
> 1000 | < 100 | > 1000 | > 1000 | CC(C)c1nc(-c2cncc(NS(=O)(=O)c3c(F)cccc3F)c2)c(-c2ccnc(Nc3ccc(N4CCOCC4)nc3)n2)s1 [Example 47]
> 1000 | < 100 | < 100 | > 1000 | CC(C)c1nc(-c2cccc(NS(=O)(=O)c3ccco3)c2)c(-c2ccnc(Nc3ccc(N4CCOCC4)nc3)n2)s1 [Example 53]
100 to 1000 | < 100 | > 1000 | > 1000 | CN(C)c1nc(-c2ccc(F)c(NS(=O)(=O)c3c(F)cccc3F)c2)c(-c2ccnc(Nc3ccc(N4CCOCC4)nc3)n2)s1 [Example 27, N-{5-[2-(Dimethylamino)-5-(2-{[6-(4-morpholinyl)-3-pyridinyl]amino}-4-pyrimidinyl)-1,3-thiazol-4-yl]-2-fluorophenyl}-2,6-difluorobenzenesulfonamide]
> 1000 | 100 to 1000 | > 1000 | > 1000 | CC(C)(C)c1nc(-c2ccc(F)c(NS(=O)(=O)c3c(F)cccc3F)c2)c(-c2ccnc(Nc3ccc(N4CCN(CCF)CC4)c(F)c3)n2)s1 [Example 99]
100 to 1000 | 100 to 1000 | > 1000 | 100 to 1000 | CC(C)c1nc(-c2ccc(F)c(NS(=O)(=O)c3c(F)cccc3F)c2)c(-c2ccnc(Nc3cccc(CCS(N)(=O)=O)c3)n2)s1 [Example 113]
> 1000 | < 100 | > 1000 | > 1000 | COc1ccc(S(C)(=O)=O)cc1Nc1nccc(-c2sc(N3CCOCC3)nc2-c2cccc(NS(=O)(=O)c3c(F)cccc3F)c2F)n1 [Example 157]
